Experimental data as given in US20260132103A1, “Bumetanide Derivatives for the Therapy of Stroke and Other Neurological Diseases/Disorders Involving NKCCs” (University of Pittsburgh - Of the Commonwealth System of …, priority 2018, published 2026).

Experiments:
Format in all cases: in vivo, mouse
[1] = system: transient focal cerebral ischemia (tMCAO) in mice; assay: Corner test after tMCAO; details: 1-14 days after tMCAO
From the text: (§1) FIGS. 2A-2D: Efficacy of NKCC1 inhibitors on improving neurological function in mice after tMCAO (see Example 3). (A) Neurological score, (B) corner test, (C) foot-fault test, and (D)-(E) adhesive tape test during 1-14 day after tMCAO. Data are mean±SD, n=4-9. *p<0.05 for DMSO vs STS66, **p<0.05 for DMSO vs STS5, ***p<0.05 for DMSO vs BMT, #p<0.05 for BMT vs STS66, ###p<0.05 for STS5 vs STS66.
Transient focal cerebral ischemia was induced in mice by intraluminal occlusion of the left middle cerebral artery (MCA) for 50 min as described previously (Chen H et al., 2005). Mice were anesthetized with 3% isoflurane in 70%: 30% N2O/O2 until they were unresponsive to the tail pinch test. Animals were then fitted with a nose cone blowing 1.5% isoflurane for anesthesia maintenance. The left common carotid artery was exposed and the occipital artery branches of the external carotid artery were isolated and coagulated. The internal carotid artery was isolated and the extracranial branch was dissected and ligated. […]
Neurological functional deficits in mice were determined by the corner test. […]
The numbers of left and right turns of each mouse during 10 trials were recorded, and turning movements that were not part of a rearing movement were not scored (Zhang L, et al., 2002).

[2] = system: transient focal cerebral ischemia (tMCAO) in mice; assay: Neurological score after tMCAO
From the text: as §1
Transient focal cerebral ischemia was induced in mice by intraluminal occlusion of the left middle cerebral artery (MCA) for 50 min as described previously (Chen H et al., 2005). Mice were anesthetized with 3% isoflurane in 70%: 30% N2O/O2 until they were unresponsive to the tail pinch test. Animals were then fitted with a nose cone blowing 1.5% isoflurane for anesthesia maintenance. The left common carotid artery was exposed and the occipital artery branches of the external carotid artery were isolated and coagulated. The internal carotid artery was isolated and the extracranial branch was dissected and ligated. A rubber silicon-coated monofilament suture (6-0) was introduced into the internal carotid artery lumen and gently advanced approximately 8-9 mm to block the MCA blood flow for 50 min. The rectal temperature was maintained at 37.0±0.5° C. during surgery through a temperature-controlled heating pad. Achievement of ischemia was confirmed by monitoring regional cerebral blood flow (rCBF) with laser speckle contrast imager (Pericam). For reperfusion, the suture was withdrawn after the MCAO. The incision was closed and the mouse recovered under a heating lamp to maintain the core temperature (36.0-37.0° C.) during the 30-60 min recovery period. After recovery, animals were returned to their cages with free access to food and water.
Vehicle: DMSO (2 ml/kg body weight/day), the NKCC1 inhibitor bumetanide (BMT, 10 mg/kg body weight/day in DMSO), bumetanide's prodrug STS5 (13 mg/kg body weight/day in DMSO), or the novel NKCC1 inhibitor STS66 according to the invention (12 mg/kg body weight/day in DMSO) was administered via intraperitoneal injection (i.p). The initial half dose of the drugs (BMT, STS5, STS66) was given at 3 h after the onset of reperfusion and the second half dose at 8 h reperfusion in the tMCAO model.
Neurological deficit grading system was used to evaluate neurological deficit at 1, 2, 3, 5, 7, 10 and 14 days after tMCAO as described previously (Bederson J B et al,1986).

[3] = system: permanent focal cerebral ischemia (pdMCAO) in AngII-induced hypertensive mice; assay: Brain infarct volume and swelling after pdMCAO in AngII-induced hypertensive mice; details: 24 h post-pdMCAO, i.p., half dose at 3 h and 8 h after pdMCAO
Method: FIG. 3: Effects of NKCC1 inhibitors against the worsened ischemic stroke in AngII-induced hypertensive mice after pdMCAO (see Example 3). (A) Experimental protocol in AngII-induced hypertensive C57/B6 mice. Permanent distal middle cerebral artery occlusion (pdMCAO) was induced in mice at day 14 post-AngII infusion. DMSO, BMT or STS66 was administered in mice via i.p. with the initial half dose at 3 h and the second half dose at 8 h after pdMCAO. (B) Representative TTC-stained mouse coronal brain sections at 2-8 mm posterior of the frontal pole were shown. TTC staining was performed at 24 h post pdMCAO. Scale: 5 mm. (C) Brain infarct volume was calculated. Data are mean±SD. Saline (n=4), AngII (n=5); *p<0.05 vs. saline control.
Permanent focal cerebral ischemia was induced by permanent occlusion of the distal middle cerebral artery (pdMCAO) in mice (Suenaga J, et al., 2015). Under anesthesia as described above, a skin incision at the midline of the neck was made. After being separated from the vagal nerve, the left CCA was exposed and occluded by ligation and the skin was sutured. Another skin incision (1 cm) was made between the left eye and the ear using fine operation scissors. The temporal muscle was identified and detached from the skull in its apical and dorsal part without totally removing the muscle by using the forceps. The MCA below the transparent skull in the rostral part of the temporal area, dorsal to the retro-orbital sinus was identified. If the MCA bifurcation is not visible (due to an anatomical normal variation), the vessel most rostral was identified. The skull above the MCA branch was thinned out with the drill until it has a thin and translucent texture. The artery, proximal and distal to the MCA bifurcation, was coagulated with the electrocoagulation forceps (in a bipolar mode at 7 W). The temporal muscle was relocated to its position and the burr hole was covered with wax and the skin wound was sutured and infiltrated with analgesia bupivacaine (100 μl 0.25%) topically. The animal was placed in a cage and monitored for recovery from anesthesia. […]
At 24 h post-reperfusion, mice were anesthetized with 5% isoflurane and then decapitated. […] Ischemic lesions were traced in each slice in a blinded manner, and the total volume of infarction was calculated with correction for edema, as described by Swanson et al., 1990 using ImageJ software. […] Brain swelling was determined with the following formula. […]
The efficacy of NKCC1 inhibitors was then tested in AngII-induced hypertensive mice after permanent MCAO model (pdMCAO), which is more clinically relevant to the majority ischemic stroke patients (McBride D W, et al., 2017). Brain infarct volume and swelling were measured at 24 h after pdMCAO. […]

| SMILES | corner test outcome [1] | neurological deficit score ([2]; day 5) | neurological deficit score ([2]; day 10) | brain swelling (edema) [3] [%] | infarct volume [3] [mm^3] | neurological deficit score ([2]; day 1 post-reperfusion) | neurological deficit score ([2]; day 14 post-reperfusion) |
| --- | --- | --- | --- | --- | --- | --- | --- |
| CCCCNc1cc(C(=O)O)cc(S(N)(=O)=O)c1Oc1ccccc1 [BMT, 3-(butylamino)-4-phenoxy-5-sulfamoylbenzoic acid, reference compound] | exhibited neuroprotective effects | 3.8±0.4 | 2.5±0.5 | 7.1±1.1 | 22.4±2.9 | – | – |
| CCCCNc1cc(CNCC(F)(F)F)cc(S(N)(=O)=O)c1Oc1ccccc1 [STS66, 3-(Butylamino)-2-phenoxy-5-[(2,2,2-trifluoroethylamino)methyl]benzenesulfonamide] | definite superior effects at every testing day | – | – | 2.4±1.1 | 13.3±2.5 | 4.0±0.0 | 1.2±0.4 |
